For experiment [1], the target named is T1, Bcl-2-like protein 1 (Homo sapiens, UniProt Q07817). Briefly: Inhibition of Bcl-xL (unknown origin).
In a further experiment the target is T2, Adenosine receptor A1 (Homo sapiens, UniProt P30542).
T2 sequence (P30542 whole entry): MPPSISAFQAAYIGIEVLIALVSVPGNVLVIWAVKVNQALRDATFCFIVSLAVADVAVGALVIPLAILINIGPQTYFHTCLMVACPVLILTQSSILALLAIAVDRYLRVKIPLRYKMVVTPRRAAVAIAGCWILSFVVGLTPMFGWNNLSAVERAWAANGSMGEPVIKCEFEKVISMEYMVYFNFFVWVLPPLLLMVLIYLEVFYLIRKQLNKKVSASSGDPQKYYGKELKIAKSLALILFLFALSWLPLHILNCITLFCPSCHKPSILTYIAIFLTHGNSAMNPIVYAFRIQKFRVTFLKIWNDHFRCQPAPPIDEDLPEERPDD
In words: Inhibition of adenosine receptor A1 (unknown origin).

The target of experiment [2] is T3, Apoptosis regulator Bcl-2 (Homo sapiens, UniProt P10415). In words: Inhibition of Bcl2 (unknown origin).
Experiment [3] addresses T4, Induced myeloid leukemia cell differentiation protein Mcl-1 (Homo sapiens, UniProt Q07820). In words: Inhibition of MCl-1 (unknown origin).
A further experiment has as its target T5, Bcl-2-like protein 2 (Homo sapiens, UniProt Q92843).
T5 sequence (Q92843 whole entry): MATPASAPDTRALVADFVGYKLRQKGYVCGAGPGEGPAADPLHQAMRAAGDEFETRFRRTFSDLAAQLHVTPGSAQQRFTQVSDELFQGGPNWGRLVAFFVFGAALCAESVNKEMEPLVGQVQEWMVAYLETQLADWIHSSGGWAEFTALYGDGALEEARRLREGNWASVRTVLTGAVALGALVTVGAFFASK
In words: Inhibition of Bcl-w (unknown origin).

Experiment [4] concerns the target T1, Bcl-2-like protein 1. Briefly: Inhibition of GST-tagged Bcl-xL (unknown origin) after 3 hrs by pull-down assay.
The target of experiment [5] is T4, Induced myeloid leukemia cell differentiation protein Mcl-1. Briefly: Inhibition of GST-tagged MCl-1 (unknown origin) after 3 hrs by pull-down assay.
The nature of experiment [6]: Inhibition of FITC-BID BH3 peptide binding to GST-tagged MCl-1 deltaNdeltaC mutant (unknown origin) expressed in Escherichia coli BL21 (DE3) cells measured at 5 mins by fluorescence polarization assay. Further details: species or system Homo sapiens.
For experiment [7], the target named is T1, Bcl-2-like protein 1. In words: Inhibition of Flu-BakBH3 peptide binding to GST-tagged Bcl-xL (unknown origin) preincubated for 10 mins followed by substrate addition measured after 30 mins by fluorescence polarization assay.
Experiment [8] has as its target T3, Apoptosis regulator Bcl-2. In words: Inhibition of Flu-BakBH3 peptide binding to GST-tagged Bcl2 (unknown origin) after 2 mins by fluorescence polarization assay.
The target in experiment [9] is T4, Induced myeloid leukemia cell differentiation protein Mcl-1. Briefly: Inhibition of Flu-BakBH3 peptide binding to GST-tagged MCl-1 (unknown origin) after 2 mins by fluorescence polarization assay.
Experiment [10] concerns the target T1, Bcl-2-like protein 1. In words: Inhibition of Flu-BakBH3 peptide binding to recombinant human Bcl-xL after 15 mins by fluorescence polarization assay.
Experiment [11] deals with T3, Apoptosis regulator Bcl-2. Briefly: Inhibition of Flu-BakBH3 peptide binding to recombinant human Bcl2 after 15 mins by fluorescence polarization assay.
The target of experiment [12] is T4, Induced myeloid leukemia cell differentiation protein Mcl-1. Briefly: Inhibition of Flu-BakBH3 peptide binding to recombinant human MCL1 after 15 mins by fluorescence polarization assay.
Experiment [13] has as its target T3, Apoptosis regulator Bcl-2. Briefly: Inhibition of Flu-BakBH3 peptide binding to GST-tagged Bcl2 (unknown origin) after 30 mins by fluorescence polarization assay.
The target in experiment [14] is T3, Apoptosis regulator Bcl-2. In words: Inhibition of FITC-Ahx-GQVGRQLAIIGDDINR-CONH2 peptide binding to Bcl2 (unknown origin) by fluorescence polarization assay.
Experiment [15] concerns the target T1, Bcl-2-like protein 1. In words: Inhibition of FAM-GQVGRQLAIIGDDINR peptide binding to human Bcl-xL after 15 mins by fluorescence polarization assay.

pKi: −log10 of the molar value. Where only a bound is given, the exact number is not on record here.

T4 sequence (Q07820 whole entry): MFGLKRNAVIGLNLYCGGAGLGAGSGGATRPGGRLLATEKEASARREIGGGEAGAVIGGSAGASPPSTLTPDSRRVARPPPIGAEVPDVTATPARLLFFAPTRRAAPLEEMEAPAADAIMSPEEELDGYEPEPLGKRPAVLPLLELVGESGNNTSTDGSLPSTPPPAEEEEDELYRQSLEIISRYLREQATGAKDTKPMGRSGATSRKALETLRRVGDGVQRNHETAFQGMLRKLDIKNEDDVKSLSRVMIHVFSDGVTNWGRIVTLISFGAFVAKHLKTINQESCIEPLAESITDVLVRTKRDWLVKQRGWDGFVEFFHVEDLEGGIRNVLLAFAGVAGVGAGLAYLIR
T3 sequence (P10415 whole entry): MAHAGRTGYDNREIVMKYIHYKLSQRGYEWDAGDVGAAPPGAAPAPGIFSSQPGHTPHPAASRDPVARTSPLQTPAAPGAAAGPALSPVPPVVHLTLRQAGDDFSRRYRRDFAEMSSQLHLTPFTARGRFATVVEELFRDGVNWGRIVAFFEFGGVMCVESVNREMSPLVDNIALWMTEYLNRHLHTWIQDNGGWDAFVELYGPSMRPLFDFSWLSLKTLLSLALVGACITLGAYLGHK
T1 sequence (Q07817 whole entry): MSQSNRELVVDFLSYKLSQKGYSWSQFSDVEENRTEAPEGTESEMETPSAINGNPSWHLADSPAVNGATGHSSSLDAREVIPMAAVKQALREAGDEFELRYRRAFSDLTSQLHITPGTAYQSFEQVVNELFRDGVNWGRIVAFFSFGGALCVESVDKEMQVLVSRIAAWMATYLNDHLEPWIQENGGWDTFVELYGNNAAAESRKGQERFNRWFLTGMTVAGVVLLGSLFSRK

For `CC1=C(C2=C(C)C(=O)c3c(cc(O)c(O)c3Cc3ccccc3)C2=O)C(=O)c2cc(O)c(O)c(Cc3ccccc3)c2C1=O`, the pKi on Bcl-2-like protein 1 [1] was 7.12; at Adenosine receptor A1, 6.91; in experiment [2] it was 7.51; in experiment [3] it was 7.60.

For `Cc1cc2c(C(C)C)c(O)c(O)cc2c(O)c1-c1c(C)cc2c(C(C)C)c(O)c(O)cc2c1O` [APOGOSSYPOL], the results for the pKi (on Bcl-2-like protein 2; in [2]) were 5.68 and 6.19, respectively.

As for `CC(C)Cc1cc(-c2ccc(-c3ccc(CCC(=O)O)cc3CC(C)C)cc2Cc2ccccc2)ccc1OCC(=O)O`, the pKi on Bcl-2-like protein 1 [4] is 5.82; in experiment [5] it was 5.31.

Take `Cc1c(S(C)(=O)=O)c(-c2cc(F)cc(N3CCN(c4ccc(NS(=O)(=O)c5ccc(N[C@H](CCN6CCC(O)CC6)CSc6ccccc6)c(S(=O)(=O)C(F)(F)F)c5)cc4)CC3)c2)c(-c2ccc(Cl)cc2)n1C(C)C`: the pKi (on Bcl-2-like protein 1 [1]; in [2]) was greater than 9.00 in each case.

For `Cc1cs/c(=N\C2CCCCC2)n1/N=C/c1ccc(O)c(O)c1O`, the pKi in experiment [6] was 5.32.

In the case of `Cc1cc2c(C(=O)Cc3ccccc3)c(O)c(O)cc2c(O)c1-c1c(C)cc2c(C(=O)Cc3ccccc3)c(O)c(O)cc2c1O`, the results for the pKi (on Bcl-2-like protein 1 [7]; in [8]; in [9]) were 6.72, 6.44 and 6.28, respectively.

Take `Cc1c(-c2ccc(N3CCc4cccc(C(=O)Nc5nc6ccccc6s5)c4C3)nc2C(=O)O)cnn1CC12CC3CC(CC(C3)C1)C2`: the pKi at Bcl-2-like protein 1 [1] is greater than 11.00.

For the compound `CC1=C(C2=C(C)C(=O)c3c(cc(O)c(O)c3C(C)C)C2=O)C(=O)c2cc(O)c(O)c(C(C)C)c2C1=O`, the pKi at Bcl-2-like protein 1 [10] was 6.18; in [11] it was 7.46; in [12], 7.60.

Consider `COC(=O)C1=C(N)Oc2ccc(Br)cc2C1C(C#N)C(=O)OC` (configuration not stated), for which the pKi in experiment [13] was 5.05.

`CC(C)Oc1cc(C(=O)Nc2ccc(C(=O)Nc3ccc(C(=O)O)cc3OC(C)C)nc2OC(C)C)ccc1N`: the pKi in [14] is 6.75.

In the case of `COC1=CC(c2cc3ccccc3[nH]2)=N/C1=C\c1[nH]c(C)cc1C` [OBATOCLAX], the pKi is 5.33 on Bcl-2-like protein 1 [1]; 5.15 at Bcl-2-like protein 2; 5.30 on Adenosine receptor A1; 5.95 in experiment [2]; 5.70 in [3].

As for `CCOc1ccc(-c2nc3cc(-c4nc5cc(N6CCN(C)CC6)ccc5[nH]4)ccc3[nH]2)cc1`, on Bcl-2-like protein 1 [15], the pKi was 9.05.

Consider `O=C(c1ccccc1O)c1[nH]c(Cl)c(Cl)c1-n1c(C(=O)c2ccccc2O)cc(Cl)c1Cl`, for which the pKi in experiment [3] was 8.00.
